For test [1], the system named is mutant Mortierella alpina SAM 1860. Description: Culturing of mutant Mortierella alpina SAM 1860 in medium with added substrate (Example 3), fatty acid methyl esters analysed by gas chromatography. The format is cell-based. The settings on record: 0.5% additive in medium with 2% glucose, 1% yeast extract, 0.2% Tween 20; 28° C., 7 days. As for the experimental part:
These cells were extracted with a solvent of one phase chloroform/methanol/water according to Bligh & Dyer extraction method to obtain total lipids in an amount of 505 mg from the strain IFO 8568, and an amount of 530 mg from the mutant SAM 1860. These lipids were subjected to methyl-esterification using anhydrous methanol/hydrochloric acid (95:5) at 50° C. for 3 hours, and the resulting fatty acid methyl esters were extracted to obtain 417 mg of a total fatty acid methyl ester preparation from the strain IFO 8568, and 454 mg of a total fatty acid preparation from the mutant SAM 1860. The fatty acid methyl ester preparations were analyzed by gas chromatography.
20 ml of a medium (pH 6.0) containing 2% glucose; 1% yeast extract; 0.2% Tween 20; and 0.5% hydrocarbon, sodium salt of fatty acid, fatty acid ester, or fat or oil, was put into a 100 ml Erlenmeyer flask, and autoclaved at 120° C. for 20 minutes.
A mutant Mortierella alpina SAM 1860 was added to each flask, and cultured on a reciprocating shaker (110 rpm) at 28° C. for 7 days. For the resulting cell preparations, fatty acid methyl esters were analyzed by gas chromatography as described in Example 1.

The next test relates to mutant SAM 1860. Description: Culturing of mutant SAM 1860 with sesamin-containing soybean oil (Example 5). The class given is cell-based, Mortierella alpina. The protocol: (§1) 100 ml each of a medium (pH 6.0) containing 4% glucose and 1% yeast extract was put into 4 Erlenmeyer flasks having a volume of 500 ml, and 0.5 ml each of soybean oil in which sesamin (2,6-bis-(3,4-methylenedioxyphenyl)-cis-3,7-dioxabicyclo[3,3,0]octane) had been dissolved to a sesamin concentration of 15% by weight was added to 2 flasks, and 0.5 ml each of soybean oil was added 2 other flasks, and the flasks were sterilized at 120° C. for 20 minutes.
(§2) Mortierella alpina IFO 8568 (Comparative Example) was added to two different media, and the mutant SAM 1860 (Example) was add to other different media.
(§3) The strains were cultured on a reciprocating shaker (110 rpm) at 28° C. for 7 days. After 24 hours from the start of culturing, 0.5 ml each of the sesamin-containing soybean oil was added to the media to which the sesamin-containing soybean oil had been added, and 0.5 ml each of soybean oil was added to the media to which soybean oil had been added. After culturing, a fatty acid methyl ester preparation was analyzed by gas chromatography as described in Example 1.

The test system of test [2] is Mortierella alpina IFO 8568. The experiment in a line: Culturing of Mortierella alpina IFO 8568 with sesamin-containing soybean oil (Example 5, Comparative Example). The format is cell-based. The note with it: strain IFO 8568; soybean oil with 15% by weight sesamin, 0.5 ml at start and after 24 hours per 100 ml; 28° C., 7 days. The protocol:
as §1, §2, §3

The mark [3] stands for this setting: Example 5 cultures (Table 4), strain not specified.

In test [1], `CCCCCCCC/C=C\CCCCCCCC(=O)[O-].[Na+]` [Sodium oleate] gave an ARA of 0.48 g/L, a DGLA of 1.40 g/L and a Dry cells of 15.5 g/L.

Take `CCCCC/C=C\C/C=C\CCCCCCCC(=O)OC` [Methyl linoleate]: in test [1], the ARA was 0.60 g/L, the DGLA was 2.15 g/L and the Dry cells worked out at 18.7 g/L.

Regarding `CCCCCCCCCCCCCCCC` [Hexadecane], in test [1], the ARA worked out at 0.55 g/L, the DGLA is reported as 1.89 g/L and the Dry cells was found to be 18.1 g/L.

On to `CCCCCCCC/C=C\CCCCCCCC(=O)OC` [Methyl oleate], for which, in test [1], the ARA turned out to be 0.56 g/L, the DGLA came out at 1.99 g/L and the Dry cells is 18.1 g/L.

In test [1], `CCCCCCCCCCCCCCCCCC` [Octadecane] came in with an ARA of 0.50 g/L, a DGLA of 1.80 g/L and a Dry cells of 18.3 g/L.

On to `CCCCC/C=C\C/C=C\CCCCCCCC(=O)[O-].[Na+]` [Sodium linoleate], for which, in test [1], the ARA is recorded as 0.49 g/L, the DGLA is 1.40 g/L and the Dry cells was 14.8 g/L.

Consider `c1cc2c(cc1[C@H]1OC[C@H]3[C@@H]1CO[C@@H]3c1ccc3c(c1)OCO3)OCO2` [sesamin, 2,6-bis-(3,4-methylenedioxyphenyl)-cis-3,7-dioxabicyclo[3,3,0]octane], for which, in the test with mutant SAM 1860 (setting [3]), the “effect of addition on the amount of dry cells” value is on record as “did not effect”. Moreover, the “effect of addition on the amount of total fatty acids produced” value in the test with mutant SAM 1860 (setting [3]) is “did not effect”. Further, the “Ratio of DGLA:ARA” value is 12.3 in the test with mutant SAM 1860 (mutant SAM 1860, soybean oil with 15% by weight sesamin, 0.5 ml at start and after 24 hours per 100 ml, 28° C., 7 days); no more than 1.17 in test [2].

Values taken from patent US6602690B2, “Process for production of dihomo-γ-linolenic acid and lipid containing same” (Suntory, Ltd., priority 1991, dated 2003).
